Experimental data: patent publication US4939133A, “N-substituted-2-hydroxy-α-oxo-benzeneacetamides and pharmaceutical compositions having activity as modulators of the arachidonic acid cascade” (Warner-Lambert Company, priority 1985, dated 1990)

Molecular target: T1, 5-lipoxygenase (isolated human leukocytes) (Homo sapiens, UniProt P09917)
T1 construct: 5-Lipoxygenase Assay Using Isolated Human Leukocytes (5LOA2); endogenous in cells; host or cells: isolated human blood leukocytes, platelets removed
T1 sequence (P09917 1-674): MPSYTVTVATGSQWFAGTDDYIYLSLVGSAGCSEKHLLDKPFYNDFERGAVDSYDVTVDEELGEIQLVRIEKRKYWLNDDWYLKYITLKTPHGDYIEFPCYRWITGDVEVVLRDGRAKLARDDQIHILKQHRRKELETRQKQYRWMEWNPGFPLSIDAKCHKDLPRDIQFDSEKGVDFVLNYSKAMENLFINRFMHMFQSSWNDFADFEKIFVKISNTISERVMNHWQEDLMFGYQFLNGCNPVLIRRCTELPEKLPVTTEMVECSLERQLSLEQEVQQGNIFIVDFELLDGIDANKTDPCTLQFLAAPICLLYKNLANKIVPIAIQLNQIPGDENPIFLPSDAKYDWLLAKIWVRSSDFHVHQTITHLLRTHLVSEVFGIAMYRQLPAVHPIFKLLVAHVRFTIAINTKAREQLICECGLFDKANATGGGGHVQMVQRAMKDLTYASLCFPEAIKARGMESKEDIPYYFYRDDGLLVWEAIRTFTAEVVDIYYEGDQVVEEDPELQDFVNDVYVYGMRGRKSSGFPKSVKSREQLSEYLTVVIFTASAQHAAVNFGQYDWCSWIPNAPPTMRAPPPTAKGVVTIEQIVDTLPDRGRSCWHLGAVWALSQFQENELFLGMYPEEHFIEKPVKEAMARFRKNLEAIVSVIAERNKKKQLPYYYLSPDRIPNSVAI
Test: 5-Lipoxygenase Assay Using Isolated Human Leukocytes (5LOA2)
Format: cell-based
Method: 5-Lipoxygenase Assay Using Isolated Human Leukocytes (5LOA2)
The formation of 5-HETE in human leukocytes is considered a measure of 5-lipoxygenase activity. The protocol is described in the following.
Fresh heparinized or EDTA treated human blood is mixed with 6% dextran-3% dextrose in isotonic saline in the ratio 0.25 ml dextran solution per 1.0 ml blood. After mixing the blood is allowed to sit at room temperature for about 90 minutes while the RBC's settle. During this period, the plasma is removed with a plastic pipette to nalgens tubes.
The plasma is centrifuged at 800 rpm ([…]) on the Beckman Td-b refrigerated centrifuge to remove the platelets (which remain in the supernatant). The pellet, consisting of leukocytes and erythrocytes, is treated with 10 ml 0.87% ammonium chloride at room temperature for four minutes, lysing the red cells. At the end of four minutes the cells are diluted with a 2×volume of phosphate buffered saline, pH 7.4, and centrifuged for ten minutes. The cells are washed three times with the phosphate buffered saline. Any of the pelleted cell matter which is not easily resuspended is discarded during the washings --the material contains platelets (12-lipoxygenase activity).
After washing, the cells are resuspended in phosphate buffered saline containing 1.0 mM calcium and 0.5 mM magnesium. After counting the cells are diluted to 1.5-2.0×10^7 leukocytes per milliliter.
To each polypropylene reaction tube is added 0.48 ml leukocytes in Ca-Mg phosphate buffered saline, pH 7.4; 1-5 μl test compound dissolved in DMSO and buffer; or DMSO for control tubes.
The tubes preincubate at 37° C. for five minutes. […]
A portion of the ethanol solution is injected into the HPLC system for 5-HETE quantitation.
The HPLC system consists of Hewlett-Packard 1040A UV spectrophotometry system with an HP85 computer. […] Peaks are measured with a Hewlett Packard 3360A integrator. […] The flow is monitored at 235 nm for 5-HETE quatitation. […]

% Inhibition (5LOA2) (5LOA2, 2.00 E -5 M): 30.9%
% Inhibition (5LOA2) (5LOA2, 5.00 E -6 M): 21.1%
SMILES: O=C(Nc1ccc(CCc2ccc(Cl)c(Cl)c2)cc1)c1ccccc1O [Example 42]
